In PMC9307114, “Discovery and SAR analysis of phenylbenzo[d][1,3]dioxole-based proprotein convertase subtilisin/kexin type 9 inhibitors” (Journal of Enzyme Inhibition and Medicinal Chemistry, 2022):

Key:
HepG2 cells = test: MTT assay on HepG2 cells; format: cell-based; details: Homo sapiens, mean of three experiments, read-out: HepG2 percentage inhibitory rate
PCSK9/LDLR PPI = PCSK9/LDLR PPI (Homo sapiens, UniProt Q8NBP7); test: PCSK9-LDLR TR-FRET assay (PCSK9/LDLR PPI inhibitory screening); format: binding; details: 10 µM; mean of three experiments; read-out: PCSK9 percentage inhibitory rate
PCSK9/LDLR PPI, sequence (Q8NBP7 153-692): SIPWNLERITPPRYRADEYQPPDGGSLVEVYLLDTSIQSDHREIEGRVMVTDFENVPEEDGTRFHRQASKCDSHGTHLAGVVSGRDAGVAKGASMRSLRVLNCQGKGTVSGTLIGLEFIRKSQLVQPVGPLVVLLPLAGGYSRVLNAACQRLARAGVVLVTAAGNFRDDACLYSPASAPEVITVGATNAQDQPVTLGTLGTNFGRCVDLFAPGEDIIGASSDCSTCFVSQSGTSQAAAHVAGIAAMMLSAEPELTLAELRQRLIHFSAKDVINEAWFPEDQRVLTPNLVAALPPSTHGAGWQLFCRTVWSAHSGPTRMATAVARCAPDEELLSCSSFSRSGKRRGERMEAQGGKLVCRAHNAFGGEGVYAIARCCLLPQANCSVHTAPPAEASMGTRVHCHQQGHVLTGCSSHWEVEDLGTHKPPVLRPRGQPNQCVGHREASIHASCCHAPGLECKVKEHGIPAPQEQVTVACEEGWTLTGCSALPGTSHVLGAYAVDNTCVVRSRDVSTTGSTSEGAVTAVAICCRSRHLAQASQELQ
PCSK9/LDLR PPI, sequence (Q8NBP7 31-152 partner limits assumed): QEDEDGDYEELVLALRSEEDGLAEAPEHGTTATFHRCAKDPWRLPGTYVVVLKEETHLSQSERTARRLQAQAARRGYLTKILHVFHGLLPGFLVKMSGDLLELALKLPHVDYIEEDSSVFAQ
Method: The PCSK9/LDLR time-resolved fluorescence resonance energy transfer (TR-FRET) assay was performed to evaluate the activity of synthesised compounds in inhibition of PCSK9-LDLR binding. The A series compounds were firstly synthesised for the PCSK9/LDLR PPI inhibitory test. […] Therefore, a group of A12 derivatives (B series) were synthesised with 4-chlorobenzyl substituted in the amino group and various substitutions introduced to the carboxylic group. […] To confirm whether the 4-chloromethyl group is essential for the PPI inhibitory activity, a new series of compounds (C series) were synthesised with the 4-chloromethyl group replaced by 4-methoxymethyl moiety. The inhibitory activity was observed, most likely resulting from the 4-methoxymethyl substitution (Table 3).
The compounds were dissolved in 100% DMSO; then 2 µL of the dilution was added to a 20 µL of reaction to keep […] in all of reactions. The binding reaction was conducted at room temperature. The reaction mixture in assay buffer contains PCSK9, the indicated amount of the inhibitor, ligand LDLR, and the reaction dyes. The reaction mixture was incubated for 120 min before detection of the TR-FRET signal. Fluorescence signals for both the donor and acceptor dyes were measured using a Tecan Infinite M1000 plate reader. TR-FRET was recorded as the ratio of the fluorescence of the acceptor and the donor dyes (acceptor/donor). The TR-FRET data were analysed using Graphpad Prism software.

Row | SMILES | inhibition at 10 µM (HepG2 cells) | inhibition at 10 µM (PCSK9/LDLR PPI)
1 | COc1cc(NC(=O)c2ccc(-c3cc4c(cc3NC(=O)c3ccccc3C)OCO4)cc2)cc(OC)c1OC [A13, 2-Methyl-N-(6-(4-((3,4,5-trimethoxyphenyl)carbamoyl)phenyl)benzo[d][1,3]dioxol-5-yl)benzamide] | 5.89 ± 0.27% | 7.65 ± 0.01%
2 | COCc1ccc(C(=O)Nc2cc3c(cc2-c2ccc(C(=O)NC(C)C)cc2)OCO3)cc1 [C10, N-isopropyl-4-(6-(4-(methoxymethyl)benzamido)benzo[d][1,3]dioxol-5-yl)benzamide] | 6.76 ± 0.18% | 5.48 ± 0.2%
3 | COCc1ccc(C(=O)Nc2cc3c(cc2-c2ccc(C(=O)N4CCN(C(=O)OC(C)(C)C)CC4)cc2)OCO3)cc1 [C2, Tert-butyl4-(4-(6-(4-(methoxymethyl)benzamido)benzo[d][1,3]dioxol-5-yl)benzoyl)piperazine-1-carboxylate] | 13.5 ± 1.13% | 17.8 ± 1.24%
4 | CCc1ccc(NC(=O)c2ccc(-c3cc4c(cc3NC(=O)c3ccc(CCl)cc3)OCO4)cc2)cc1 [B9, 4-(Chloromethyl)-N-(6-(4-((4-ethylphenyl)carbamoyl)phenyl)benzo[d][1,3]dioxol-5-yl)benzamide] | 6.36 ± 0.42% | 3.36 ± 0.23%
5 | CCOc1ccc(NC(=O)c2ccc(-c3cc4c(cc3NC(=O)c3ccc(CCl)cc3)OCO4)cc2)cc1 [B6, 4-(Chloromethyl)-N-(6-(4-((4-ethoxyphenyl)carbamoyl)phenyl)benzo[d][1,3]dioxol-5-yl)benzamide] | 7.04 ± 0.27% | 6.97 ± 0.43%
6 | COc1cc(NC(=O)c2ccc(-c3cc4c(cc3NC(=O)c3cccc(Br)c3)OCO4)cc2)cc(OC)c1OC [A8, 3-Bromo-N-(6-(4-((3,4,5-trimethoxyphenyl)carbamoyl)phenyl)benzo[d][1,3]dioxol-5-yl)benzamide] | 3.66 ± 0.24% | 5.88 ± 0.12%
7 | COCc1ccc(C(=O)Nc2cc3c(cc2-c2ccc(C(=O)N4CCN(c5ccc(F)cc5)CC4)cc2)OCO3)cc1 [C7, N-(6-(4-(4-(4-fluorophenyl)piperazine-1-carbonyl)phenyl)benzo[d][1,3]dioxol-5-yl)-4-(methoxymethyl)benzamide] | 12.8 ± 1.07% | 33.4 ± 1.52%
8 | O=C(Nc1ccc(-c2ccccc2)cc1)c1ccc(-c2cc3c(cc2NC(=O)c2ccc(CCl)cc2)OCO3)cc1 [B11, N-([1,1′-biphenyl]-4-yl)-4-(6-(4-(chloromethyl)benzamido)benzo[d][1,3]dioxol-5-yl)benzamide] | 3.26 ± 0.22% | 6.92 ± 0.53%
9 | COc1cc(NC(=O)c2ccc(-c3cc4c(cc3NC(=O)c3cccc(F)c3)OCO4)cc2)cc(OC)c1OC [A9, 3-Fluoro-N-(6-(4-((3,4,5-trimethoxyphenyl)carbamoyl)phenyl)benzo[d][1,3]dioxol-5-yl)benzamide] | 11.7 ± 0.88% | 22.5 ± 1.36%
10 | COc1cc(NC(=O)c2ccc(-c3cc4c(cc3NC(=O)c3ccccc3Cl)OCO4)cc2)cc(OC)c1OC [A7, 2-Chloro-N-(6-(4-((3,4,5-trimethoxyphenyl)carbamoyl)phenyl)benzo[d][1,3]dioxol-5-yl)benzamide] | 12.4 ± 1.07% | 5.16 ± 0.31%
11 | CCN1CCN(C(=O)c2ccc(-c3cc4c(cc3NC(=O)c3ccc(CCl)cc3)OCO4)cc2)CC1 [B18, 4-(Chloromethyl)-N-(6-(4-(4-ethylpiperazine-1-carbonyl)phenyl)benzo[d][1,3]dioxol-5-yl)benzamide] | 6.76 ± 0.26% | 5.66 ± 0.02%
12 | COc1ccc(NC(=O)c2ccc(-c3cc4c(cc3NC(=O)c3ccc(CCl)cc3)OCO4)cc2)cc1 [B5, 4-(Chloromethyl)-N-(6-(4-((4-methoxyphenyl)carbamoyl)phenyl)benzo[d][1,3]dioxol-5-yl)benzamide] | 7.22 ± 0.15% | 6.18 ± 0.08%
13 | COc1ccc(C(=O)Nc2cc3c(cc2-c2ccc(C(=O)Nc4cc(OC)c(OC)c(OC)c4)cc2)OCO3)cc1 [A6, 4-Methoxy-N-(6-(4-((3,4,5-trimethoxyphenyl)carbamoyl)phenyl)benzo[d][1,3]dioxol-5-yl)benzamide] | 5.9 ± 0.42% | 5.92 ± 0.52%
14 | COc1cc(NC(=O)c2ccc(-c3cc4c(cc3NC(=O)c3ccc(C#N)cc3)OCO4)cc2)cc(OC)c1OC [A17, 4-Cyano-N-(6-(4-((3,4,5-trimethoxyphenyl)carbamoyl)phenyl)benzo[d][1,3]dioxol-5-yl)benzamide] | 3.84 ± 0.11% | 7.91 ± 0.71%
15 | CC(C)NC(=O)c1ccc(-c2cc3c(cc2NC(=O)c2ccc(CCl)cc2)OCO3)cc1 [B20, 4-(Chloromethyl)-N-(6-(4-(isopropylcarbamoyl)phenyl)benzo[d][1,3]dioxol-5-yl)benzamide] | 9.55 ± 0.43% | 3.15 ± 0.13%
16 | COCc1ccc(C(=O)Nc2cc3c(cc2-c2ccc(C(=O)N4CCN(c5ccc(OC)cc5)CC4)cc2)OCO3)cc1 [C3, 4-(Methoxymethyl)-N-(6-(4-(4-(4-methoxyphenyl)piperazine-1-carbonyl)phenyl)benzo[d][1,3]dioxol-5-yl)benzamide] | 6.62 ± 0.45% | 25.3 ± 2.11%
17 | COc1cc(NC(=O)c2ccc(-c3cc4c(cc3NC(=O)c3ccc(F)cc3)OCO4)cc2)cc(OC)c1OC [A1, 4-Fluoro-N-(6-(4-((3,4,5-trimethoxyphenyl)carbamoyl)phenyl)benzo[d][1,3]dioxol-5-yl)benzamide] | 12.5 ± 1.06% | 27.2 ± 1.85%
18 | CCc1ccc(N2CCN(C(=O)c3ccc(-c4cc5c(cc4NC(=O)c4ccc(CCl)cc4)OCO5)cc3)CC2)cc1 [B15, 4-(Chloromethyl)-N-(6-(4-(4-(4-ethylphenyl)piperazine-1-carbonyl)phenyl)benzo[d][1,3]dioxol-5-yl)benzamide] | 8.91 ± 0.62% | 7.22 ± 0.71%
19 | COCc1ccc(C(=O)Nc2cc3c(cc2-c2ccc(C(=O)Nc4ccc(N5CCN(C)CC5)cc4)cc2)OCO3)cc1 [C9, 4-(Methoxymethyl)-N-(6-(4-((4-(4-methylpiperazin-1-yl)phenyl)carbamoyl)phenyl)benzo[d][1,3]dioxol-5-yl)benzamide] | 6.22 ± 0.24% | 3.75 ± 0.33%
20 | O=C(Nc1cc2c(cc1-c1ccc(C(=O)N3CCN(c4ccc(Cl)cc4)CC3)cc1)OCO2)c1ccc(CCl)cc1 [B16, 4-(Chloromethyl)-N-(6-(4-(4-(4-chlorophenyl)piperazine-1-carbonyl)phenyl)benzo[d][1,3]dioxol-5-yl)benzamide] | 10.2 ± 0.91% | 7.94 ± 0.03%
21 | O=C(Nc1ccc(Br)cc1)c1ccc(-c2cc3c(cc2NC(=O)c2ccc(CCl)cc2)OCO3)cc1 [B2, N-(4-bromophenyl)-4-(6-(4-(chloromethyl)benzamido)benzo[d][1,3]dioxol-5-yl)benzamide] | 15.6 ± 1.24% | 25.5 ± 2.22%
22 | O=C(Nc1cc2c(cc1-c1ccc(C(=O)N3CCN(c4ccc(F)cc4)CC3)cc1)OCO2)c1ccc(CCl)cc1 [B17, 4-(Chloromethyl)-N-(6-(4-(4-(4-fluorophenyl)piperazine-1-carbonyl)phenyl)benzo[d][1,3]dioxol-5-yl)benzamide] | 16.4 ± 1.18% | 4.07 ± 0.25%
23 | COc1ccc(NC(=O)c2ccc(-c3cc4c(cc3NC(=O)c3ccc(CCl)cc3)OCO4)cc2)cc1OC [B7, 4-(Chloromethyl)-N-(6-(4-((3,4-dimethoxyphenyl)carbamoyl)phenyl)benzo[d][1,3]dioxol-5-yl)benzamide] | 5.45 ± 0.39% | 16.3 ± 0.62%
24 | O=C(Nc1cc2c(cc1-c1ccc(C(=O)N3CCN(c4ccccc4)CC3)cc1)OCO2)c1ccc(CCl)cc1 [B13, 4-(Chloromethyl)-N-(6-(4-(4-phenylpiperazine-1-carbonyl)phenyl)benzo[d][1,3]dioxol-5-yl)benzamide] | 3.21 ± 0.26% | 5.64 ± 0.04%
25 | COc1cc(NC(=O)c2ccc(-c3cc4c(cc3NC(=O)c3ccc(C(F)(F)F)cc3)OCO4)cc2)cc(OC)c1OC [A2, 4-(Trifluoromethyl)-N-(6-(4-((3,4,5-trimethoxyphenyl)carbamoyl)phenyl)benzo[d][1,3]dioxol-5-yl)benzamide] | 16.4 ± 1.55% | 23.1 ± 2.17%
26 | COCc1ccc(C(=O)Nc2cc3c(cc2-c2ccc(C(=O)Nc4cc(OC)cc(OC)c4)cc2)OCO3)cc1 [C1, N-(3,5-dimethoxyphenyl)-4-(6-(4-(methoxymethyl)benzamido)benzo[d][1,3]dioxol-5-yl)benzamide] | 6.21 ± 0.22% | 21.6 ± 1.67%
27 | CCc1ccc(C(=O)Nc2cc3c(cc2-c2ccc(C(=O)Nc4cc(OC)c(OC)c(OC)c4)cc2)OCO3)cc1 [A14, 4-Ethyl-N-(6-(4-((3,4,5-trimethoxyphenyl)carbamoyl)phenyl)benzo[d][1,3]dioxol-5-yl)benzamide] | 5.21 ± 0.16% | 7.83 ± 0.26%
28 | Cc1ccc(NC(=O)c2ccc(-c3cc4c(cc3NC(=O)c3ccc(CCl)cc3)OCO4)cc2)cc1 [B8, 4-(Chloromethyl)-N-(6-(4-(p-tolylcarbamoyl)phenyl)benzo[d][1,3]dioxol-5-yl)benzamide] | 3.35 ± 0.16% | 3.15 ± 0.02%
29 | COc1ccccc1C(=O)Nc1cc2c(cc1-c1ccc(C(=O)Nc3cc(OC)c(OC)c(OC)c3)cc1)OCO2 [A10, 2-Methoxy-N-(6-(4-((3,4,5-trimethoxyphenyl)carbamoyl)phenyl)benzo[d][1,3]dioxol-5-yl)benzamide] | 4.27 ± 0.16% | 3.05 ± 0.05%
